Data as given in patent publication US9695155B2, “Herbicidal substituted pyrimidinyloxy benzene compounds” (E. I. DU PONT DE NEMOURS AND COMPANY, priority 2013, dated 2017).

Columns and labels:
barnyardgrass = assay: Test A preemergence; assay type: in vivo, Echinochloa crus-galli; conditions: 0 to 100 scale where 0 is no effect and 100 is complete control
In short: (§1)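 Pre- and postemergence greenhouse screen. Soil: loam + sand. Spray carrier: solvent mixture, non-phytotoxic, with surfactant. Post timing at 1–2 leaves, height 2–10 cm. Readout: visual injury on a 0–100 scale roughly 10 days after application, untreated plants as reference.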

large (Lg) crabgrass [1] = assay: Test A preemergence; assay type: in vivo, Digitaria sanguinalis; conditions: 0 to 100 scale where 0 is no effect and 100 is complete control
In short: as §1

pigweed = assay: Test A preemergence; assay type: in vivo, Amaranthus retroflexus
In short: as §1

corn = assay: Test A preemergence; assay type: in vivo, Zea mays; conditions: 0 to 100 scale where 0 is no effect and 100 is complete control
In short: as §1

large (Lg) crabgrass [2] = assay: Test A postemergence; assay type: in vivo, Digitaria sanguinalis; conditions: 0 to 100 scale where 0 is no effect and 100 is complete control
In short: as §1

rice = assay: Test B flooded paddy test; assay type: in vivo, Oryza sativa; conditions: Flood, 250 g ai/ha; 0 to 100 scale where 0 is no effect and 100 is complete control
In short: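 Greenhouse flooded-pot test: compounds dosed into 3 cm standing water over 2-leaf plants, flood held constant. Rated visually after 13–15 days on 0–100 (complete control = 100); a dash marks no test result.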

giant foxtail = assay: Test C preemergence; assay type: in vivo, Setaria faberii; conditions: for Foxtail, Giant plant response rating: preemergence
In short: (§2)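 Sown in loam/sand → sprayed pre-emergence; or grown to 1–4 leaves in peat mix → sprayed post-emergence. Same solvent/surfactant formulation both ways. Greenhouse 13–15 d. Score 0–100 visual.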

yellow nutsedge = assay: Test C preemergence; assay type: in vivo, Cyperus esculentus; conditions: preemergence
In short: as §2

Italian ryegrass = assay: Test C postemergence; assay type: in vivo, Lolium multiflorum
In short: as §2

large (Lg) crabgrass [3] = assay: Test C postemergence; assay type: in vivo, Digitaria sanguinalis
In short: as §2

lambsquarters = assay: Test C postemergence; assay type: in vivo, Chenopodium album
In short: as §2

morningglory = assay: Test C postemergence; assay type: in vivo, Ipomoea coccinea
In short: as §2

ragweed = assay: Test C postemergence; assay type: in vivo, Ambrosia elatior
In short: as §2

oilseed rape = assay: Test C postemergence; assay type: in vivo, Brassica napus
In short: as §2

wild oat = assay: Test C postemergence; assay type: in vivo, Avena fatua
In short: as §2

[4] = 16 g ai/ha, scale 0 to 100 (0 no effect, 100 complete control)
[5] = 62 g ai/ha, scale 0 (no effect) to 100 (complete control)
[6] = 125 g ai/ha, scale 0 (no effect) to 100 (complete control)
[7] = 16 g ai/ha, postemergence, 0 is no effect, 100 is complete control
[8] = 31 g ai/ha, postemergence, visual rating, scale 0 to 100 (0 no effect, 100 complete control), 13 to 15 days
[9] = 125 g ai/ha, postemergence, visual rating, scale 0 to 100 (0 no effect, 100 complete control)
[10] = Postemergence, 62 g ai/ha, scale 0 to 100 (0 no effect, 100 complete control)

FC(F)(F)c1cnn(-c2c(Cl)cccc2Oc2ncc(Cl)cn2)c1 [Compound 167]
Plant response rating, Barnyardgrass (barnyardgrass; 125 g ai/ha): 80 | Barnyardgrass plant response rating (barnyardgrass; 500 g ai/ha): 100 | Plant response rating, Crabgrass, Large (large (Lg) crabgrass [1]; 125 g ai/ha): 100 | Crabgrass, Large plant response rating (large (Lg) crabgrass [1]; 500 g ai/ha): 100 | Pigweed plant response rating (0 to 100 scale) (pigweed; 125 g ai/ha): 100 | Pigweed plant response rating (pigweed; 500 g ai/ha, 0 to 100 scale where 0 is no effect and 100 is complete control): 100 | Plant response rating, Corn (corn; 125 g ai/ha): 10 | Corn plant response rating (corn; 500 g ai/ha): 40 | Crabgrass, Large plant response rating (large (Lg) crabgrass [2]; 125 g ai/ha): 80 | Plant response rating, Crabgrass, Large (large (Lg) crabgrass [2]; 500 g ai/ha): 90 | Plant response rating, Rice (rice): 0 | Foxtail, Giant plant response rating (giant foxtail; [4]): 35 | Foxtail, Giant plant response rating (giant foxtail; [5]): 100 | Foxtail, Giant plant response rating (giant foxtail; [6]): 100 | Plant response rating, Foxtail, Giant (giant foxtail; Preemergence, 31 g ai/ha, scale 0 to 100, 0 no effect, 100 complete control): 95 | Nutsedge, Yellow plant response rating (yellow nutsedge; [4]): 0 | Nutsedge, Yellow plant response rating (yellow nutsedge; [5]): 10 | Nutsedge, Yellow plant response rating (yellow nutsedge; [6]): 60 | Plant response rating (0 to 100), Ryegrass, Italian (Italian ryegrass; [7]): 0 | Ryegrass, Italian plant response rating (Italian ryegrass; [8]): 10 | Plant response rating, Ryegrass, Italian (Italian ryegrass; [9]): 30 | Plant response rating, Ryegrass, Italian (Italian ryegrass; [10]): 5 | Plant response rating (0 to 100), Crabgrass, Large (large (Lg) crabgrass [3]; [7]): 5 | Crabgrass, Large plant response rating (large (Lg) crabgrass [3]; [8]): 5 | Plant response rating, Crabgrass, Large (large (Lg) crabgrass [3]; [9]): 10 | Plant response rating, Crabgrass, Large (large (Lg) crabgrass [3]; [10]): 5 | Plant response rating (0 to 100), Lambsquarters (lambsquarters; [7]): 80 | Lambsquarters plant response rating (lambsquarters; [8]): 90 | Plant response rating, Lambsquarters (lambsquarters; [9]): 100 | Plant response rating, Lambsquarters (lambsquarters; [10]): 98 | Plant response rating (0 to 100), Morningglory (morningglory; [7]): 80 | Morningglory plant response rating (morningglory; [8]): 60 | Plant response rating, Morningglory (morningglory; [9]): 90 | Plant response rating, Morningglory (morningglory; [10]): 98 | Plant response rating (0 to 100), Ragweed (ragweed; [7]): 10 | Ragweed plant response rating (ragweed; [8]): 10 | Plant response rating, Ragweed (ragweed; [9]): 55 | Plant response rating, Ragweed (ragweed; [10]): 30 | Plant response rating (0 to 100), Oilseed Rape (oilseed rape; [7]): 15 | Oilseed Rape plant response rating (oilseed rape; [8]): 50 | Plant response rating, Oilseed Rape (oilseed rape; [9]): 70 | Plant response rating, Oilseed Rape (oilseed rape; [10]): 85 | Plant response rating (0 to 100), Oat, Wild (wild oat; [7]): 5 | Oat, Wild plant response rating (wild oat; [8]): 25 | Plant response rating, Oat, Wild (wild oat; [9]): 35 | Plant response rating, Oat, Wild (wild oat; [10]): 35
